Source: article PMC9370560, “5-Demethoxy-10′-ethoxyexotimarin F, a New Coumarin with MAO-B Inhibitory Potential from Murraya exotica L” (Molecules, 2022)
Where two headings read alike, the source gives them in different places.

What was measured:
MAO-A = molecular target: T1, MAO-A (Homo sapiens, UniProt P21397); assay: biochemical; settings: mean ± S.E.M. from three experiments
T1 sequence (P21397 1-527): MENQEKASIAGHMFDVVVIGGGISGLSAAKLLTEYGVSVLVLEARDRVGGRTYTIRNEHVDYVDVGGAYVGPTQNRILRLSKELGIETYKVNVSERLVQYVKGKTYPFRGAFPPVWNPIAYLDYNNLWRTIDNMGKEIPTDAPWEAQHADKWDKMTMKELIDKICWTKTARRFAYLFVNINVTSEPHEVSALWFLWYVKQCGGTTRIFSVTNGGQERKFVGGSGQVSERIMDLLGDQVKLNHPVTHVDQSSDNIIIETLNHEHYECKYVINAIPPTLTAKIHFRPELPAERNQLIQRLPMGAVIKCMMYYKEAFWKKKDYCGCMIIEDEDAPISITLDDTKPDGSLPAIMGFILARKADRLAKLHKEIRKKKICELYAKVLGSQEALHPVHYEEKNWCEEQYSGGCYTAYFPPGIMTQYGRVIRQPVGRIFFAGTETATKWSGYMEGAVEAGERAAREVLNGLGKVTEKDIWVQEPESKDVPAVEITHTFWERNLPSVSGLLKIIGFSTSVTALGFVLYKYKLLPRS

MAO-B [1] = molecular target: T2, MAO-B (Homo sapiens, UniProt P27338); assay: biochemical
T2 sequence (P27338 1-520): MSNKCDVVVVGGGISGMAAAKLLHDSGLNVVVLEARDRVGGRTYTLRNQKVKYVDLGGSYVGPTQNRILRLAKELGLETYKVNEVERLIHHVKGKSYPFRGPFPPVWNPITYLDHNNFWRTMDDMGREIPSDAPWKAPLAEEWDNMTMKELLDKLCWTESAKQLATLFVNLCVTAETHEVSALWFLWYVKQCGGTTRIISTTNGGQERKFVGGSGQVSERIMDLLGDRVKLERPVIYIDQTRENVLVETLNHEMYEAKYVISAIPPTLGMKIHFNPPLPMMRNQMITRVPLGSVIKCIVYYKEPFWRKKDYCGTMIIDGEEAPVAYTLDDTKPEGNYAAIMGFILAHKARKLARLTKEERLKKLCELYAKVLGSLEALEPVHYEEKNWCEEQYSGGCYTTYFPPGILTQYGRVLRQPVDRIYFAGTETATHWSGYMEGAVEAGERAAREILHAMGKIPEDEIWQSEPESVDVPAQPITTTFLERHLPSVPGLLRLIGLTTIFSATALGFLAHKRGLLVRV

[2] = system: LPS-induced NO production in RAW264.7 cells; assay: Anti-inflammatory assay: inhibition of LPS-induced NO production; format: cell-based
[3] = system: acetylcholinesterase (AChE); settings: 50 μM
Experimental: (§1) S-Acetylthiocholine iodide, S-butyrylthiocholineiodide, 5,5′-dithio-bis-(2-nitrobenzoic) acid (DTNB, Ellman’s reagent), acetylcholinesterase and butyrylcholinesterase derived from human erythrocytes were purchased from Sigma Chemical (St. Louis, MO, USA). The compounds were dissolved in DMSO. The reaction mixture (totally 200 μL) containing phosphate buffer (pH 8.0), test compound (50 μM), and acetyl cholinesterase (0.02 U/mL) or butyrylcholinesterase (0.016 U/mL), was incubated for 20 min (37 °C). […] All of the reactions were performed in triplicate. The percentage inhibition was calculated as follows: % inhibition = (E − S)/E × 100 (E is the activity of the enzyme without test compound, and S is the activity of the enzyme with test compound).

[4] = system: T3, butyrylcholinesterase (BuChE); assay: Butyrylcholinesterase inhibitory activity (Ellman's method); format: biochemical, human; settings: 50 μM
T3 construct: acetylcholinesterase and butyrylcholinesterase derived from human erythrocytes; purchased Sigma Chemical (St. Louis, MO, USA); host or cells: human erythrocytes (so in the source)
Experimental: as §1

α-glucosidase = assay: α-Glucosidase inhibition assay (4-NPGP); format: biochemical
Experimental: An enzyme inhibitor screening model was chosen using 4-nitro-phenol-α-D-glucopyranoside (4-NPGP) and slightly modified. Briefly, the test compound (50 μM), α-glucosidase solution (0.025 U/mL), phosphate buffer (pH 6.9), and (4-NPGP) (1 μM) were incubated in 96-well plates at 37 °C for 50 min. […] Quercetin was selected as the positive control. All of the reactions were repeated three times.

[5] = system: Salmonella enterica (ATCC14028); assay: Antimicrobial assay (broth dilution and Oxford cup method); format: cell-based, Salmonella enterica subsp. enterica; settings: 100 μM
From the text: (§2) The broth dilution method and Oxford cup method were used to detect antimicrobial activity against reference strains, including Salmonella enterica subsp. enterica (ATCC14028), Staphylococcus aureus subsp. aureus (ATCC29213), Escherichia coli (ATCC25922), Pseudomonas aeruginosa (ATCC27853), and Candida albicans (ATCC10231). Ceftazidime and penicillin G sodium and amphotericin B served as an antibacterial and antifungal positive control, respectively.

[6] = system: Staphylococcus aureus (ATCC29213); assay: as above; format: cell-based, Staphylococcus aureus subsp. aureus; settings: 100 μM
From the text: as §2

[7] = system: Candida albicans (ATCC10231); assay: as above; format: cell-based; settings: 100 μM
From the text: as §2

[8] = system: Escherichia coli (ATCC25922); assay: as above; format: cell-based; settings: 100 μM
From the text: as §2

[9] = system: Pseudomonas aeruginosa (ATCC27853); assay: as above; format: cell-based; settings: 100 μM
From the text: as §2

MAO-B [10] = molecular target: T2, MAO-B; settings: previous studies of the authors; read-out: IC50 against MAO-B; cited from earlier work

## C=C(C)[C@H](O)[C@@H](OCC)c1c(OC)ccc(/C=C/C(=O)O[C@H](Cc2c(OC)ccc3ccc(=O)oc23)C(C)(C)O)c1O [Compound 1, (E)-(R)-3-hydroxy-1-(7-methoxy-2-oxo-2H-chromen-8-yl)-3-methylbutan-2-yl·3-(3-((1S, 2S)-1-ethoxy-2-hydroxy-3-methylbut-3-en-1-yl)-2-hydroxy-4-methoxyphenyl)acrylate]
MAO-A
  IC50: 26300 ± 1030 nM
MAO-B [1]
  SI: MAO-B selectivity index = IC50 (MAO-A)/IC50 (MAO-B): 172
MAO-B [1]; mean ± S.E.M. from three experiments
  IC50: 153 ± 1.58 nM
[2]
  inhibition against LPS-induced NO production: 34.59%
[3]
  AChE inhibitory activity: did not show any inhibitory activity
[4]
  BuChE inhibitory activity: did not show any inhibitory activity
α-glucosidase; 50 μM
  α-glucosidase percentage of inhibition: less than 50%
[5]
  inhibitory effect against Salmonella enterica (ATCC14028): did not lead to a significant inhibitory effect
[6]
  inhibitory effect against Staphylococcus aureus (ATCC29213): did not lead to a significant inhibitory effect
[7]
  inhibitory effect against Candida albicans (ATCC10231): did not lead to a significant inhibitory effect
[8]
  inhibitory effect against Escherichia coli (ATCC25922): did not lead to a significant inhibitory effect
[9]
  inhibitory effect against Pseudomonas aeruginosa (ATCC27853): did not lead to a significant inhibitory effect

## [H]/N=C(/NC)NCCC[C@H](N)C(=O)O [L-NMMA, NG-monomethyl-L-arginine, reference compound]
[2]
  inhibition against LPS-induced NO production: 56.13%

## COc1c(OC/C=C(\C)C[C@@H]2C=C(CCC(N)=O)C(=O)O2)ccc2ccc(=O)oc12 [anisucoumaramide]
MAO-B [10]
  IC50: 143.7 ± 0.9 nM

## O=c1c(O)c(-c2ccc(O)c(O)c2)oc2cc(O)cc(O)c12 [quercetin, reference compound]
α-glucosidase; concentration not given
  α-glucosidase inhibition (positive control): 53.17%
